The text below walks through data of patent publication US20230257372A1 (CHONG KUN DANG PHARMACEUTICAL CORP., priority 2020, published 2023).

Structures are written as SMILES. Read-outs that look alike come from different tables or passages of the source.

The target of test [1] is T1, human recombinant HDAC1 (Homo sapiens, UniProt Q13547).
T1 construct: purchased Enzo Life Science, Inc. BML-SE456
The test can be described thus: HDAC1 enzyme activity inhibition (HDAC Fluorimetric Drug Discovery Kit). To be noted: read-out: HDAC1. The test is classed as biochemical. An outline of the steps:
(§1)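 Each isoform is run in the same format: compound dilutions (5-fold steps), 10 μM substrate, […] enzyme, one hour at 30° C, then 30 minutes with developer before fluorescence readout.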

Test [2] concerns the target T2, human recombinant HDAC6 (Homo sapiens, UniProt Q9UBN7).
T2 construct: purchased Calbiochem Inc. 382180
T2 sequence (Q9UBN7 1-1215): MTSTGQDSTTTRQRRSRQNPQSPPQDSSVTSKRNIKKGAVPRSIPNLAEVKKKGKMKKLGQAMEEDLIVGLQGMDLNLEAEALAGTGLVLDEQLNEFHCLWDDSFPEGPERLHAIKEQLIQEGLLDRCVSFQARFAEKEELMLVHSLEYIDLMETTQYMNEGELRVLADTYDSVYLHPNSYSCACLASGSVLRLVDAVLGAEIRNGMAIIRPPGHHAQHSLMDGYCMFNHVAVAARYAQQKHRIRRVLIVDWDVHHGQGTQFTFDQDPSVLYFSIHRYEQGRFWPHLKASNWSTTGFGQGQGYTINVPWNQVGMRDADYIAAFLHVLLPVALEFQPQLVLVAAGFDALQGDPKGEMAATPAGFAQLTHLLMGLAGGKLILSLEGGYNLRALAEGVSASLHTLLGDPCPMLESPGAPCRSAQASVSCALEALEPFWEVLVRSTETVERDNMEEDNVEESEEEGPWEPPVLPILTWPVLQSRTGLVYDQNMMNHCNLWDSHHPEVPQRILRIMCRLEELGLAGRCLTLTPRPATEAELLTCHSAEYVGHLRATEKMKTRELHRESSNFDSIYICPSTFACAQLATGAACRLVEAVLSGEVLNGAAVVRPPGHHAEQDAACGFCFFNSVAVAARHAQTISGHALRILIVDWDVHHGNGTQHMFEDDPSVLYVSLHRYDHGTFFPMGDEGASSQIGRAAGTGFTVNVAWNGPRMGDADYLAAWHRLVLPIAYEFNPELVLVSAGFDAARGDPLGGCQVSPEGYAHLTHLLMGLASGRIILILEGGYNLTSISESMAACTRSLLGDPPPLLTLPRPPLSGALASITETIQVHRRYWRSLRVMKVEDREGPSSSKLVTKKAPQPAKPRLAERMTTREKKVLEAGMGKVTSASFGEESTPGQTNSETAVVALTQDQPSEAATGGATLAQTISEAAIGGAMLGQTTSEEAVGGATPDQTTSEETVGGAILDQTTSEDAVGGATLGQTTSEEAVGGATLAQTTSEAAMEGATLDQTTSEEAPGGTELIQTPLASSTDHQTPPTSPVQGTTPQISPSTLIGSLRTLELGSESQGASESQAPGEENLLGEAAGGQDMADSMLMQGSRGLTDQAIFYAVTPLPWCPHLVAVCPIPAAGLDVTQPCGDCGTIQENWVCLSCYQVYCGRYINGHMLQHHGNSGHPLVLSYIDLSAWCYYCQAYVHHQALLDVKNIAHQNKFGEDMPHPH
The test can be described thus: HDAC6 enzyme activity inhibition (HDAC Fluorimetric Drug Discovery Kit). Type of test: biochemical. The method in brief:
as §1

[3] abbreviates: human recombinant HDAC1, IC50 calculated with GraphPad Prism.
[4] abbreviates: human recombinant HDAC6, IC50 calculated with GraphPad Prism.
Where [5] appears, read: human recombinant HDAC1, Fluor de Lys substrate, 30° C. 60 minutes.
The mark [6] stands for this setting: human recombinant HDAC6, same protocol as HDAC1.

T1 sequence (Q13547 whole entry): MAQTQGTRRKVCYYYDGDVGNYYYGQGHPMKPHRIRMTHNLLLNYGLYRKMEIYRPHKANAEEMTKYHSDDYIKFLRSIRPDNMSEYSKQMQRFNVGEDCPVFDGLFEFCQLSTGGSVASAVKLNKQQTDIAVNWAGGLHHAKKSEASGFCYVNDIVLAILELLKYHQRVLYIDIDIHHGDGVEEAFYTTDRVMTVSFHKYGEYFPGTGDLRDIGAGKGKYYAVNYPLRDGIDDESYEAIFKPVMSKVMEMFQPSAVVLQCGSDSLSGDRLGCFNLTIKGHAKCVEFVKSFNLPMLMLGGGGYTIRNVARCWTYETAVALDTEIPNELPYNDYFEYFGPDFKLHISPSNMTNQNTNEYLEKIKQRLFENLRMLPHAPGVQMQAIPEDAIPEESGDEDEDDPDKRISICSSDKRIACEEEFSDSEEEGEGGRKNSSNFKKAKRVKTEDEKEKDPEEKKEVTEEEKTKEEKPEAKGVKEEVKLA

For the compound `CC(C)(C)OC(=O)N1CCC(Cc2cn(Cc3ccc(-c4nnc(C(F)F)o4)cn3)nn2)CC1` [Compound 4000, Tert-butyl 4-((1-((5-(5-(difluoromethyl)-1,3,4-oxadiazol-2-yl)pyridin-2-yl)methyl)-1H-1,2,3-triazol-4-yl)methyl)piperidin-1-carboxylate], the IC50 in test [1] (setting [3]) was greater than 50 µM; in test [2] (setting [4]), 343 nM. Besides, the “HDAC6 selectivity (fold)” value in test [2] (HDAC1 IC50 / HDAC6 IC50) is listed as 145 fold.
`Fc1cc(-c2nnc(C(F)F)o2)ccc1Cn1cc(-c2ccc(CN3CCC(F)(F)C3)nc2)nn1` [Compound 17775, 2-(difluoromethyl)-5-(4-((4-(6-((3,3-difluoropyrrolidin-1-yl)methyl)pyridin-3-yl)-1H-1,2,3-triazol-1-yl)methyl)-3-fluorophenyl)-1,3,4-oxadiazole]: the IC50 is greater than 50 µM in test [1] (setting [5]) and 94.1 nM in test [2] (setting [6]). Moreover, the “HDAC6 selectivity (fold)” value in test [2] (HDAC6 over HDAC1) stood at 531 fold.
As to `FC(F)c1nnc(-c2ccc(Cn3cc(-c4ccc(N5CCOCC5)cc4)nn3)nc2)o1` [Compound 4105, 4-(4-(1-((5-(5-(difluoromethyl)-1,3,4-oxadiazol-2-yl)pyridin-2-yl)methyl)-1H-1,2,3-triazol-4-yl)phenyl)morpholin], the results for the IC50 in test [1] (setting [3]) and in test [2] (setting [4]) were 34 µM and 34.7 nM, respectively. In addition, the “HDAC6 selectivity (fold)” value in test [2] (HDAC1 IC50 / HDAC6 IC50) stood at 979 fold.
The corresponding values for `CC(C)N1CCc2cc(-c3cn(Cc4ccc(-c5nnc(C(F)F)o5)cn4)nn3)ccc2C1` [Compound 4053, 2-(difluoromethyl)-5-(6-((4-(2-isopropyl-1,2,3,4-tetrahydroisoquinolin-6-yl)-1H-1,2,3-triazol-1-yl)methyl)pyridin-3-yl)-1,3,4-oxadiazole] are greater than 50 µM, 56.8 nM and 880 fold.
For `Fc1cc(-c2nnc(C(F)F)o2)ccc1Cn1cc(-c2ccc(CNC3CCCC3)cc2)nn1` [Compound 4609, N-(4-(1-(4-(5-(difluoromethyl)-1,3,4-oxadiazol-2-yl)-2-fluorobenzyl)-1H-1,2,3-triazol-4-yl)benzyl)cyclopentanamine], the results for the IC50 in test [1] (setting [5]) and in test [2] (setting [6]) were greater than 50 µM and 15.8 nM, respectively. Besides, in test [2] (HDAC6 over HDAC1), the “HDAC6 selectivity (fold)” value is listed as 3164 fold.
`OC1(c2cn(Cc3ccc(-c4nnc(C(F)F)o4)cn3)nn2)COC1` [Compound 4276, 3-(1-((5-(5-(difluoromethyl)-1,3,4-oxadiazol-2-yl)pyridin-2-yl)methyl)-1H-1,2,3-triazol-4-yl)oxetan-3-ol]: the IC50 in test [1] (setting [3]) is greater than 50 µM; in test [2] (setting [4]), 349 nM. For the same compound, in test [2] (HDAC1 IC50 / HDAC6 IC50), the “HDAC6 selectivity (fold)” value is reported as 143 fold.
The corresponding values for `Fc1cc(-c2nnc(C(F)F)o2)ccc1Cn1cc(-c2cc(C(F)(F)F)cc(C(F)(F)F)c2)nn1` [Compound 3696, 2-(4-((4-(3,5-bis(trifluoromethyl)phenyl)-1H-1,2,3-triazol-1-yl)methyl)-3-fluorophenyl)-5-(difluoromethyl)-1,3,4-oxadiazole] are greater than 50 µM, 945 nM and 52 fold.
Consider `Fc1cc(-c2nnc(C(F)F)o2)ccc1Cn1cc(-c2ccc(CN3CC4(COC4)C3)cc2)nn1` [Compound 4523, 6-(4-(1-(4-(5-(difluoromethyl)-1,3,4-oxadiazol-2-yl)-2-fluorobenzyl)-1H-1,2,3-triazol-4-yl)benzyl)-2-oxa-6-azaspiro[3.3]heptane], for which the IC50 in test [1] (setting [5]) is greater than 50 µM; in test [2] (setting [6]) it was 11.1 nM. Further, the “HDAC6 selectivity (fold)” value in test [2] (HDAC6 over HDAC1) amounted to 4504 fold.
Consider `CN1C[C@@H]2C[C@H]1CN2c1cccc(-c2cn(Cc3ccc(-c4nnc(C(F)F)o4)cc3F)nn2)c1` [Compound 4318, 2-(difluoromethyl)-5-(3-fluoro-4-((4-(3-((1S,4S)-5-methyl-2,5-diazabicyclo[2.2.1]heptan-2-yl)phenyl)-1H-1,2,3-triazol-1-yl)methyl)phenyl)-1,3,4-oxadiazole], for which the IC50 in test [1] (setting [3]) was greater than 50 µM; in test [2] (setting [4]) it was 36.4 nM. Also, in test [2] (HDAC1 IC50 / HDAC6 IC50), the “HDAC6 selectivity (fold)” value came to 1373 fold.
With `Fc1cc(-c2nnc(C(F)F)o2)ccc1Cn1cc(-c2ccc(N3CCNCC3)cc2F)nn1` [Compound 16797, 2-(difluoromethyl)-5-(3-fluoro-4-((4-(2-fluoro-4-(piperazin-1-yl)phenyl)-1H-1,2,3-triazol-1-yl)methyl)phenyl)-1,3,4-oxadiazole], the results for the IC50 in test [1] (setting [5]) and in test [2] (setting [6]) were greater than 50 µM and 67.7 nM, respectively. The “HDAC6 selectivity (fold)” value in test [2] (HDAC6 over HDAC1) was 738 fold.
In the case of `Fc1ccc(-c2cn(Cc3ccc(-c4nnc(C(F)F)o4)cc3)nn2)cc1N1CCN(C2CCC2)CC1` [Compound 4422, 2-(4-((4-(3-(4-cyclobutylpiperazin-1-yl)-4-fluorophenyl)-1H-1,2,3-triazol-1-yl)methyl)phenyl)-5-(difluoromethyl)-1,3,4-oxadiazol], the IC50 in test [1] (setting [3]) was greater than 50 µM; in test [2] (setting [4]), 392 nM. For the same compound, the “HDAC6 selectivity (fold)” value in test [2] (HDAC1 IC50 / HDAC6 IC50) is listed as 127 fold.
Turning to `Fc1cc(-c2nnc(C(F)F)o2)ccc1Cn1cc(-c2ccc(CN3CCC(F)(F)CC3)cc2)nn1` [Compound 4472, 2-(difluoromethyl)-5-(4-((4-(4-((4,4-difluoropiperidin-1-yl)methyl)phenyl)-1H-1,2,3-triazol-1-yl)methyl)-3-fluorophenyl)-1,3,4-oxadiazole], the IC50 is greater than 50 µM in test [1] (setting [3]) and 123 nM in test [2] (setting [4]). Further, the “HDAC6 selectivity (fold)” value in test [2] (HDAC1 IC50 / HDAC6 IC50) stood at 407 fold.
In the same order, the values of `C[C@@H]1CN(c2cccc(-c3cn(Cc4ccc(-c5nnc(C(F)F)o5)cc4)nn3)c2)C[C@H](C)N1` [Compound 4440, 2-(difluoromethyl)-5-(4-((4-(3-((3R,5S)-3,5-dimethylpiperazin-1-yl)phenyl)-1H-1,2,3-triazol-1-yl)methyl)phenyl)-1,3,4-oxadiazole] are greater than 50 µM, 30.2 nM and 1655 fold.
In the case of `CN(C)CC(=O)Nc1cccc(-c2cn(Cc3ccc(-c4nnc(C(F)F)o4)cc3F)nn2)c1` [Compound 4352, N-(3-(1-(4-(5-(difluoromethyl)-1,3,4-oxadiazol-2-yl)-2-fluorobenzyl)-1H-1,2,3-triazol-4-yl)phenyl)-2-(dimethylamino)acetamide], the IC50 was greater than 50 µM in test [1] (setting [3]) and 33.2 nM in test [2] (setting [4]). Also, the “HDAC6 selectivity (fold)” value in test [2] (HDAC1 IC50 / HDAC6 IC50) was 1562 fold.
With `CN1CCc2ccc(-c3cn(Cc4ncc(-c5nnc(C(F)F)o5)cc4F)nn3)cc2C1` [Compound 19002, 2-(difluoromethyl)-5-(5-fluoro-6-((4-(2-methyl-1,2,3,4-tetrahydroisoquinolin-7-yl)-1H-1,2,3-triazol-1-yl)methyl)pyridin-3-yl)-1,3,4-oxadiazole], the IC50 was greater than 50 µM in test [1] (setting [5]) and 85.1 nM in test [2] (setting [6]). Also, the “HDAC6 selectivity (fold)” value in test [2] (HDAC6 over HDAC1) amounted to 587 fold.
The corresponding values for `CCN1CCN(c2cc(-c3cn(Cc4ccc(-c5nnc(C(F)F)o5)cn4)nn3)ccn2)CC1` [Compound 4591, 2-(difluoromethyl)-5-(6-((4-(2-(4-ethylpiperazin-1-yl)pyridin-4-yl)-1H-1,2,3-triazol-1-yl)methyl)pyridin-3-yl)-1,3,4-oxadiazole] are greater than 50 µM, 14.1 nM and 3546 fold.
Consider `Fc1cc(-c2nnc(C(F)F)o2)ccc1Cn1cc(-c2cccc(C3CN(C4COC4)C3)c2)nn1` [Compound 4462, 2-(difluoromethyl)-5-(3-fluoro-4-((4-(3-(1-(oxetan-3-yl)azetidin-3-yl)phenyl)-1H-1,2,3-triazol-1-yl)methyl)phenyl)-1,3,4-oxadiazole], for which the IC50 is greater than 50 µM in test [1] (setting [3]) and 92.5 nM in test [2] (setting [4]). In addition, in test [2] (HDAC1 IC50 / HDAC6 IC50), the “HDAC6 selectivity (fold)” value is given as 540 fold.
For `Fc1cc(-c2nnc(C(F)F)o2)ccc1Cn1cc(-c2ccc(C3CN(C4COC4)C3)cc2)nn1` [Compound 17700, 2-(difluoromethyl)-5-(3-fluoro-4-((4-(4-(1-(oxetan-3-yl)azetidin-3-yl)phenyl)-1H-1,2,3-triazol-1-yl)methyl)phenyl)-1,3,4-oxadiazole], the IC50 was greater than 50 µM in test [1] (setting [5]) and 79.8 nM in test [2] (setting [6]). The “HDAC6 selectivity (fold)” value in test [2] (HDAC6 over HDAC1) came to 626 fold.
